According to ChEMBL document CHEMBL1201862, “PubChem BioAssay data set” (2004):
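Grown in 96-well plates, cells were treated for 48 hours with each compound at five concentrations. Insufficient inhibition: endpoint recorded as highest concentration tested. The concentration for 50% growth inhibition is given as GI50.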 Active and inactive are the calls of the source. No stated cut-off is given here; in the data, active = GI50 up to about 1.1 µM and inactive = higher.

Key:
Assay in all cases: NCI anticancer screen, dose series, 48 h
OVCAR-5 = test system: OVCAR-5
SNB-75 = test system: SNB-75
Malme-3M = test system: Malme-3M
A549 = test system: A549
T47D = test system: T47D
COLO 205 = test system: COLO 205
HCC 2998 = test system: HCC 2998
EKVX = test system: EKVX
RXF 393 = test system: RXF 393
SF-295 = test system: SF-295
SW-620 = test system: SW-620
PC-3 = test system: PC-3
HCT-116 = test system: HCT-116
CCRF-CEM = test system: CCRF-CEM
HL-60 = test system: HL-60
NCI/ADR-RES = test system: NCI/ADR-RES
IGROV-1 = test system: IGROV-1
SK-MEL-28 = test system: SK-MEL-28
ACHN = test system: ACHN

SMILES | GI50 (OVCAR-5) | GI50 (SNB-75) | GI50 (Malme-3M) | GI50 (A549) | GI50 (T47D) | GI50 (COLO 205) | GI50 (HCC 2998) | GI50 (EKVX) | GI50 (RXF 393) | GI50 (SF-295) | GI50 (SW-620) | GI50 (PC-3) | GI50 (HCT-116) | GI50 (CCRF-CEM) | GI50 (HL-60) | GI50 (NCI/ADR-RES) | GI50 (IGROV-1) | GI50 (SK-MEL-28) | GI50 (ACHN)
COC(=O)/C=C\c1ccc2c(c1)CC1(C2)Cc2ccc(/C=C/C(=O)OC)cc2C1 (stereo unspecified) | > 31.6 µM (inactive) | 1.09 µM (active) | 29.4 µM (inactive) | > 31.6 µM (inactive) | > 31.6 µM (inactive) | > 31.6 µM (inactive) | > 31.6 µM (inactive) | > 31.6 µM (inactive) | > 31.6 µM (inactive) | 21.5 µM (inactive) | > 100 µM (inactive) | > 31.6 µM (inactive) | 24.4 µM (inactive) | > 31.6 µM (inactive) | > 31.6 µM (inactive) | > 31.6 µM (inactive) | > 31.6 µM (inactive) | > 100 µM (inactive) | > 31.6 µM (inactive)
CC1(C)[C@@H](Cn2cnc3c(O)nc(N)nc32)CC[C@@]1(C)CO | > 100 µM (inactive) | > 100 µM (inactive) | – | > 100 µM (inactive) | > 100 µM (inactive) | – | > 100 µM (inactive) | > 100 µM (inactive) | > 100 µM (inactive) | > 100 µM (inactive) | > 100 µM (inactive) | > 100 µM (inactive) | > 100 µM (inactive) | > 100 µM (inactive) | – | > 100 µM (inactive) | – | > 100 µM (inactive) | > 100 µM (inactive)
CC1(C)O[C@H]2OC(CO)C(N=[N+]=[N-])[C@H]2O1 (stereo partly specified) | > 100 µM (inactive) | > 100 µM (inactive) | > 100 µM (inactive) | > 100 µM (inactive) | > 100 µM (inactive) | > 100 µM (inactive) | > 100 µM (inactive) | > 100 µM (inactive) | – | > 100 µM (inactive) | > 100 µM (inactive) | > 100 µM (inactive) | > 100 µM (inactive) | > 100 µM (inactive) | > 100 µM (inactive) | > 100 µM (inactive) | > 100 µM (inactive) | > 100 µM (inactive) | > 100 µM (inactive)
CC(C)CNC(=O)CCc1cccc2c1oc1c(CCN)cccc12 | 15.1 µM (inactive) | 5.62 µM (inactive) | 16.6 µM (inactive) | 18.5 µM (inactive) | 13.7 µM (inactive) | 5.86 µM (inactive) | 14.2 µM (inactive) | 14.3 µM (inactive) | 16 µM (inactive) | 16.3 µM (inactive) | 12 µM (inactive) | 13.4 µM (inactive) | 9.93 µM (inactive) | 3.9 µM (inactive) | 2.53 µM (inactive) | 18.7 µM (inactive) | 10.2 µM (inactive) | 11.5 µM (inactive) | 12.8 µM (inactive)
COc1cc([C@@H]2c3cc4c(cc3[C@@H](NC(=O)c3ccc(C#N)cc3)C3COC(=O)[C@@H]32)OCO4)cc(OC)c1O (stereo partly specified) | 0.794 µM (active) | 0.673 µM (active) | 0.355 µM (active) | < 0.01 µM (active) | – | 2.94 µM (inactive) | 1.6 µM (inactive) | 0.979 µM (active) | 1.97 µM (inactive) | 0.233 µM (active) | 0.331 µM (active) | – | 0.459 µM (active) | 0.0803 µM (active) | 0.138 µM (active) | – | 0.191 µM (active) | 2.43 µM (inactive) | 0.0914 µM (active)
CC(=O)C(CN(C)C)C(c1ccccc1)c1c(O)c2ccccc2oc1=O (stereo unspecified) | > 100 µM (inactive) | 14.3 µM (inactive) | > 100 µM (inactive) | > 100 µM (inactive) | – | > 100 µM (inactive) | > 100 µM (inactive) | > 100 µM (inactive) | > 100 µM (inactive) | > 100 µM (inactive) | > 100 µM (inactive) | – | > 100 µM (inactive) | > 100 µM (inactive) | > 100 µM (inactive) | – | > 100 µM (inactive) | > 100 µM (inactive) | > 100 µM (inactive)
CC(C)OC(=O)c1cc(NC(=O)C(C)(C)C)c(F)cc1Cl | > 100 µM (inactive) | > 100 µM (inactive) | > 100 µM (inactive) | > 100 µM (inactive) | – | > 100 µM (inactive) | > 100 µM (inactive) | > 100 µM (inactive) | > 100 µM (inactive) | > 100 µM (inactive) | > 100 µM (inactive) | – | > 100 µM (inactive) | > 100 µM (inactive) | 62.5 µM (inactive) | – | > 100 µM (inactive) | > 100 µM (inactive) | > 100 µM (inactive)
COC(=O)[C@@H]1CN(C(=O)CCc2ccccc2)C(=O)N1C(=O)OCc1ccccc1 | > 100 µM (inactive) | > 100 µM (inactive) | > 100 µM (inactive) | > 100 µM (inactive) | 38.5 µM (inactive) | > 100 µM (inactive) | > 100 µM (inactive) | > 100 µM (inactive) | > 100 µM (inactive) | > 100 µM (inactive) | > 100 µM (inactive) | – | > 100 µM (inactive) | > 100 µM (inactive) | > 100 µM (inactive) | > 100 µM (inactive) | > 100 µM (inactive) | > 100 µM (inactive) | > 100 µM (inactive)
COC(=O)C1=C(OC)c2cc3c(cc2C(c2cc(OC)c(OC)c(OC)c2)C1C(=O)OC)OCO3 (stereo unspecified) | > 100 µM (inactive) | > 100 µM (inactive) | > 100 µM (inactive) | > 100 µM (inactive) | – | 38.7 µM (inactive) | > 100 µM (inactive) | > 100 µM (inactive) | 49 µM (inactive) | 59.7 µM (inactive) | > 100 µM (inactive) | – | > 100 µM (inactive) | > 100 µM (inactive) | > 100 µM (inactive) | – | > 100 µM (inactive) | > 100 µM (inactive) | > 100 µM (inactive)
C/C(=N\NC(=S)Nc1ccc([N+](=O)[O-])cc1S(=O)(=O)O)c1ccccn1 | 39.9 µM (inactive) | 43 µM (inactive) | 95.9 µM (inactive) | 37.7 µM (inactive) | – | 36.5 µM (inactive) | 30.9 µM (inactive) | 37.9 µM (inactive) | 38.8 µM (inactive) | > 100 µM (inactive) | 26.5 µM (inactive) | – | 28.4 µM (inactive) | 39.9 µM (inactive) | 31.7 µM (inactive) | – | 73.1 µM (inactive) | > 100 µM (inactive) | 62.4 µM (inactive)
O=C(Cc1ccccc1)NN1C(=O)C(Cl)C1c1ccc(Cl)cc1 (stereo unspecified) | > 100 µM (inactive) | 84.5 µM (inactive) | > 100 µM (inactive) | > 100 µM (inactive) | – | > 100 µM (inactive) | > 100 µM (inactive) | > 100 µM (inactive) | > 100 µM (inactive) | > 100 µM (inactive) | > 100 µM (inactive) | – | > 100 µM (inactive) | > 100 µM (inactive) | 92.7 µM (inactive) | – | > 100 µM (inactive) | > 100 µM (inactive) | > 100 µM (inactive)
C/N=c1\ss/c(=N\C(=S)N(C)C)n1-c1ccccc1 | > 100 µM (inactive) | 17.3 µM (inactive) | > 100 µM (inactive) | > 100 µM (inactive) | – | > 100 µM (inactive) | > 100 µM (inactive) | > 100 µM (inactive) | > 48.2 µM (inactive) | > 75.5 µM (inactive) | > 100 µM (inactive) | – | > 72.8 µM (inactive) | > 100 µM (inactive) | > 100 µM (inactive) | – | 97.7 µM (inactive) | > 100 µM (inactive) | > 100 µM (inactive)
